Assay results taken from PMC9090410 (Journal of Enzyme Inhibition and Medicinal Chemistry, 2022).

Experiments:
[1] = system: HDACs from HeLa cell lysates; format: biochemical; details: for IC50: HeLa cell extract, fluorometric assay, incubating for 8 h, standard deviation in parentheses, read-out: HeLa Cell Lysate IC50
Protocol: (§1) Once prepared, the compounds were screened for inhibition of HDAC activity from the cell lysates of HeLa cells and the recombinant isoforms HDAC3 and HDAC8. […]
(§2) then added followed by further incubation for 10 min at 25 °C. The enzyme activities was measured based on the fluorescence intensity at excitation 350-380 nm and emission 440-480 nm in a plate reader. A control set of data without the presence of inhibitor was acquired using 45 µL of buffer.
(§3) Inhibitors 1-7 were screened using a commercially available In Situ Histone Deacetylase Activity […]
(§4) divergence being the 8 hr incubation time.

Recombinant HDAC 3 = target: T1, Recombinant HDAC 3 (Homo sapiens, UniProt O15379); assay: Recombinant HDAC3 inhibition, fluorometric assay, 8 h incubation; format: biochemical; details: for IC50: recombinant HDAC3, fluorometric assay, incubating for 8 h, standard deviation in parentheses
T1 construct: purchased not specified (Fisher Scientific, Sigma-Aldrich or Chem-Impex are named for all reagents)
T1 sequence (O15379 whole entry): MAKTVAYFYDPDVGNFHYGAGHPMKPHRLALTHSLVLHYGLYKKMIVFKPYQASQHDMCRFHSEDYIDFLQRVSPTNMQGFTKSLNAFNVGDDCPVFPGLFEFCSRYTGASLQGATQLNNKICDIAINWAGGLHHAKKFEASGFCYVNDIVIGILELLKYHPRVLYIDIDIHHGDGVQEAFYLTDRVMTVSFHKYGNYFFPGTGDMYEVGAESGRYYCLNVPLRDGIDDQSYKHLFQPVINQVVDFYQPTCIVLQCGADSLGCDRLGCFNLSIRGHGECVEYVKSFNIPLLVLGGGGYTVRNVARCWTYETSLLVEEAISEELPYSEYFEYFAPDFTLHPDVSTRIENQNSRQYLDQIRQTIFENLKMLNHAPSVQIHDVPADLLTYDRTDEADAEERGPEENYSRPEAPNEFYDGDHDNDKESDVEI
T1 sequence (Q9Y618 395-489 partner limits assumed): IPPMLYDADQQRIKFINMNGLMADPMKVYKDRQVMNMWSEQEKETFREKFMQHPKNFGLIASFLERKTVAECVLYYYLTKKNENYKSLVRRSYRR
Protocol: as §1, §2, §3, §4

Recombinant HDAC 8 = target: T2, Recombinant HDAC 8 (Homo sapiens, UniProt Q9BY41); assay: Recombinant HDAC8 inhibition, fluorometric assay, 8 h incubation; format: biochemical; details: for IC50: recombinant HDAC8, fluorometric assay, incubating for 8 h, standard deviation in parentheses
T2 construct: purchased not specified (Fisher Scientific, Sigma-Aldrich or Chem-Impex are named for all reagents)
T2 sequence (Q9BY41 1-377): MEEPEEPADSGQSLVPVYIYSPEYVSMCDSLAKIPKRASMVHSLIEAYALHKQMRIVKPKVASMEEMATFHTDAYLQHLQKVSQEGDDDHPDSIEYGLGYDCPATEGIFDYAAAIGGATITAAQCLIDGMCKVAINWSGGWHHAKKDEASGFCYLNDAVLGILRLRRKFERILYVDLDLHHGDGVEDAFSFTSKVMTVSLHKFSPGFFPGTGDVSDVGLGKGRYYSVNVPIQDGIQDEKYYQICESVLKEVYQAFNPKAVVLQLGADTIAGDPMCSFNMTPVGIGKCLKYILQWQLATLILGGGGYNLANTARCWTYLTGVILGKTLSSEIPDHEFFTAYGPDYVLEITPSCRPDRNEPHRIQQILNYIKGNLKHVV
Protocol: as §1, §2, §3, §4

HeLa cell lysates = details: 10 h incubation time; ref Kapustin et al. (23); read-out: IC50 Hela cell lysate; cited from earlier work
[2] = time course enzyme inhibition assay, inhibitor at 100 μM

| Compound | IC50 [1] [µM] | Incubation time of optimal inhibition, HeLa cell lysate [1, 2] [h] | IC50 (Recombinant HDAC 3) [µM] | Incubation time of optimal inhibition, HDAC 3 (Recombinant HDAC 3; [2]) [h] | IC50 (Recombinant HDAC 8) [µM] | Incubation time of optimal inhibition, HDAC 8 (Recombinant HDAC 8; [2]) [h] | IC50 (HeLa cell lysates) [mM] |
| --- | --- | --- | --- | --- | --- | --- | --- |
| O=C(CCCCCNP(=O)(O)O)Nc1ccccc1 [Compound 2] | 70 | 8 | 240 | 4 | 129 | 8 |  |
| O=C(CCCCOP(=O)(O)O)Nc1ccccc1 [Compound 4] | 2200 |  |  |  |  |  |  |
| O=C(CCCCCOP(=O)(O)O)Nc1ccccc1 [Compound 5] | 60 |  | 690 |  | 179 |  |  |
| O=C(CCCCCCOP(=O)(O)O)Nc1ccccc1 [Compound 6] | 3900 |  |  |  |  |  |  |
| O=C(CCCCCOP(O)(O)=S)Nc1ccccc1 [Compound 7] | 50 |  | 103 |  | 49 |  |  |
| CP(=O)(O)CCCCCC(=O)Nc1ccccc1 [PA3] |  |  |  |  |  |  | 6.1 |
